Where a name gives a salt, the structure may show the parent alone.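 The compound was tested at five concentrations on cells cultured in 96-well plates, with a 48-hour exposure period. Abbreviation: GI50, concentration required for 50% inhibition of growth.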 Active and inactive are the calls of the source. Rule as the data show it: active = GI50 up to about 1.1 µM and inactive = higher.
Experiments:
Test in all cases: NCI-60 cell line screen, 48 h
[1] = tested on: EKVX
[2] = tested on: OVCAR-5
[3] = tested on: NCI-H522
[4] = tested on: SF-539
[5] = tested on: HL-60
[6] = tested on: CCRF-CEM
[7] = tested on: HCT-116
[8] = tested on: SR
[9] = tested on: MOLT-4
[10] = tested on: KM12
[11] = tested on: DU-145
[12] = tested on: IGROV-1
[13] = tested on: A498
[14] = tested on: M14
[15] = tested on: SK-OV-3
[16] = tested on: HOP-62
[17] = tested on: RXF 393
[18] = tested on: NCI-H460
[19] = tested on: MDA-MB-435
[20] = tested on: SK-MEL-5

Row | SMILES | GI50 [1] | GI50 [2] | GI50 [3] | GI50 [4] | GI50 [5] | GI50 [6] | GI50 [7] | GI50 [8] | GI50 [9] | GI50 [10] | GI50 [11] | GI50 [12] | GI50 [13] | GI50 [14] | GI50 [15] | GI50 [16] | GI50 [17] | GI50 [18] | GI50 [19] | GI50 [20]
1 | N=C(N)c1ccc(-c2ccc(-c3ccc(C(=N)N)cc3)o2)cc1 [FURAMIDINE HYDROCHLORIDE] | 28.4 µM (inactive) | 18.9 µM (inactive) | 24.8 µM (inactive) | 37.3 µM (inactive) | 77.8 µM (inactive) | 24.9 µM (inactive) | 28.8 µM (inactive) | 29.8 µM (inactive) | 27.4 µM (inactive) | 22.5 µM (inactive) | 32.7 µM (inactive) | 46.3 µM (inactive) | 63.7 µM (inactive) | 25.1 µM (inactive) | > 100 µM (inactive) | 29 µM (inactive) | 32 µM (inactive) | 17.6 µM (inactive) | 30.7 µM (inactive) | 11.9 µM (inactive)
2 | Cc1cc2nc3ccc(N(C)C)cc3[s+]c2cc1N [TOLONIUM CHLORIDE] | 4.48 µM (inactive) | 9.73 µM (inactive) | 2.62 µM (inactive) | 2.63 µM (inactive) | 0.383 µM (active) | 1.16 µM (inactive) | 1.75 µM (inactive) | 3.67 µM (inactive) | 2.69 µM (inactive) | 3.84 µM (inactive) | 15.7 µM (inactive) | 6.22 µM (inactive) | 21.3 µM (inactive) | 2.24 µM (inactive) | 9.71 µM (inactive) | 8.97 µM (inactive) | 7.52 µM (inactive) | 2.82 µM (inactive) | 0.977 µM (active) | 0.641 µM (active)

From ChEMBL document CHEMBL1201862, “PubChem BioAssay data set” (2004)
